# Reference: US9695155B2, “Herbicidal substituted pyrimidinyloxy benzene compounds” (E. I. DU PONT DE NEMOURS AND COMPANY, priority 2013, dated 2017)
# What was measured:
# large (Lg) crabgrass [1] = experiment: Test C postemergence; type: in vivo, Digitaria sanguinalis; details: Digitaria sanguinalis, post-emergence
# Outline: (§1)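 Sown in loam/sand → sprayed pre-emergence; or grown to 1–4 leaves in peat mix → sprayed post-emergence. Same solvent/surfactant formulation both ways. Greenhouse 13–15 d. Score 0–100 visual.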
# corn = experiment: Test A preemergence; type: in vivo, Zea mays; details: Zea mays, pre-emergence, 240 h
# Outline: (§2)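 Pre- and postemergence greenhouse screen. Soil: loam + sand. Spray carrier: solvent mixture, non-phytotoxic, with surfactant. Post timing at 1–2 leaves, height 2–10 cm. Readout: visual injury on a 0–100 scale roughly 10 days after application, untreated plants as reference.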
# morningglory = experiment: Test C postemergence; type: in vivo, Ipomoea coccinea; details: Ipomoea, post-emergence
# Outline: as §1
# large (Lg) crabgrass [2] = experiment: Test A preemergence; type: in vivo, Digitaria sanguinalis; details: Digitaria sanguinalis, pre-emergence, 240 h
# Outline: as §2
# yellow nutsedge = experiment: Test C preemergence; type: in vivo, Cyperus esculentus; details: Cyperus, pre-emergence, preemergence, scale 0 (no effect) to 100 (complete control), read-out: Nutsedge, Yellow plant response rating
# Outline: as §1
# ragweed = experiment: Test C postemergence; type: in vivo, Ambrosia elatior; details: Ambrosia artemisiifolia, post-emergence
# Outline: as §1
# large (Lg) crabgrass [3] = experiment: Test A postemergence; type: in vivo, Digitaria sanguinalis; details: Digitaria sanguinalis, post-emergence, 240 h
# Outline: as §2
# wild oat = experiment: Test C postemergence; type: in vivo, Avena fatua; details: Avena fatua, post-emergence
# Outline: as §1
# oilseed rape = experiment: Test C postemergence; type: in vivo, Brassica napus; details: Brassica napus, post-emergence
# Outline: as §1
# Italian ryegrass = experiment: Test C postemergence; type: in vivo, Lolium multiflorum; details: Lolium multiflorum, post-emergence
# Outline: as §1
# barnyardgrass = experiment: Test A preemergence; type: in vivo, Echinochloa crus-galli; details: Echinochloa crus-galli, pre-emergence, 240 h
# Outline: as §2
# rice = experiment: Test B flooded paddy test; type: in vivo, Oryza sativa; details: Oryza sativa; Flood, 250 g ai/ha; 0 to 100 scale where 0 is no effect and 100 is complete control; read-out: Plant response rating, Rice
# Outline: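 Greenhouse flooded-pot test: compounds dosed into 3 cm standing water over 2-leaf plants, flood held constant. Rated visually after 13–15 days on 0–100 (complete control = 100); a dash marks no test result.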
# lambsquarters = experiment: Test C postemergence; type: in vivo, Chenopodium album; details: Chenopodium album, post-emergence
# Outline: as §1
# giant foxtail = experiment: Test C preemergence; type: in vivo, Setaria faberii; details: Setaria faberi, pre-emergence
# Outline: as §1
# pigweed = experiment: Test A preemergence; type: in vivo, Amaranthus retroflexus; details: Amaranthus retroflexus, pre-emergence
# Outline: as §2
# [4] = 125 g ai/ha, 0 to 100 scale where 0 is no effect and 100 is complete control, read-out: Plant response rating, Crabgrass, Large
compound,measurement,setting,value
"N#Cc1cccc(Oc2ncc(Br)cn2)c1-n1cc(C(F)(F)F)cn1 [Compound 59, 3-[(5-bromo-2-pyrimidinyl)oxy]-2-[4-(trifluoromethyl)-1H-pyrazol-1-yl]benzonitrile]",pest or weed control at 125 g/ha,"large (Lg) crabgrass [1]; 125 g ai/ha, postemergence, read-out: Plant response rating (0 to 100), Crabgrass, Large",30%
same,pest or weed control at 250 g/ha,"large (Lg) crabgrass [1]; 250 g ai/ha, postemergence, read-out: Plant response rating (0 to 100), Crabgrass, Large",40%
same,pest or weed control at 31 g/ha,"large (Lg) crabgrass [1]; Postemergence, 31 g ai/ha, scale 0 to 100 (0 no effect, 100 complete control), 13 to 15 days, read-out: Plant response rating, Crabgrass, Large",10%
same,pest or weed control at 62 g/ha,"large (Lg) crabgrass [1]; Postemergence, 62 g ai/ha, scale 0 to 100 (0 no effect, 100 complete control), read-out: Plant response rating, Crabgrass, Large",10%
same,"Corn plant response rating (crop injury, 0 = no effect, 100 = complete kill) at 125 g/ha","corn; 125 g ai/ha, 0 to 100 scale where 0 is no effect and 100 is complete control",20%
same,plant injury at 500 g/ha,"corn; 500 g ai/ha, 0 to 100 scale, 0 no effect, 100 complete control, approx. 10 days, read-out: Corn plant response rating",30%
same,pest or weed control at 125 g/ha,"morningglory; 125 g ai/ha, postemergence, read-out: Plant response rating (0 to 100), Morningglory",95%
same,pest or weed control at 250 g/ha,"morningglory; 250 g ai/ha, postemergence, read-out: Plant response rating (0 to 100), Morningglory",95%
same,pest or weed control at 31 g/ha,"morningglory; Postemergence, 31 g ai/ha, scale 0 to 100 (0 no effect, 100 complete control), 13 to 15 days, read-out: Plant response rating, Morningglory",80%
same,pest or weed control at 62 g/ha,"morningglory; Postemergence, 62 g ai/ha, scale 0 to 100 (0 no effect, 100 complete control), read-out: Plant response rating, Morningglory",85%
same,pest or weed control at 125 g/ha,large (Lg) crabgrass [2]; [4],100%
same,pest or weed control at 500 g/ha,"large (Lg) crabgrass [2]; 500 g ai/ha, 0 to 100 scale, 0 no effect, 100 complete control, approx. 10 days, read-out: Crabgrass, Large plant response rating",100%
same,pest or weed control at 62 g/ha,yellow nutsedge; 62 g ai/ha,65%
same,pest or weed control at 125 g/ha,yellow nutsedge; 125 g ai/ha,85%
same,pest or weed control at 250 g/ha,yellow nutsedge; 250 g ai/ha,90%
same,pest or weed control at 125 g/ha,"ragweed; 125 g ai/ha, postemergence, read-out: Plant response rating (0 to 100), Ragweed",25%
same,pest or weed control at 250 g/ha,"ragweed; 250 g ai/ha, postemergence, read-out: Plant response rating (0 to 100), Ragweed",55%
same,pest or weed control at 31 g/ha,"ragweed; Postemergence, 31 g ai/ha, scale 0 to 100 (0 no effect, 100 complete control), 13 to 15 days, read-out: Plant response rating, Ragweed",10%
same,pest or weed control at 62 g/ha,"ragweed; Postemergence, 62 g ai/ha, scale 0 to 100 (0 no effect, 100 complete control), read-out: Plant response rating, Ragweed",25%
same,pest or weed control at 125 g/ha,large (Lg) crabgrass [3]; [4],100%
same,pest or weed control at 500 g/ha,"large (Lg) crabgrass [3]; 500 g ai/ha, 0 to 100 scale, 0 no effect, 100 complete control, read-out: Plant response rating Crabgrass, Large",100%
same,pest or weed control at 125 g/ha,"wild oat; 125 g ai/ha, postemergence, read-out: Plant response rating (0 to 100), Oat, Wild",40%
same,pest or weed control at 250 g/ha,"wild oat; 250 g ai/ha, postemergence, read-out: Plant response rating (0 to 100), Oat, Wild",40%
same,pest or weed control at 31 g/ha,"wild oat; Postemergence, 31 g ai/ha, scale 0 to 100 (0 no effect, 100 complete control), 13 to 15 days, read-out: Plant response rating, Oat, Wild",25%
same,pest or weed control at 62 g/ha,"wild oat; Postemergence, 62 g ai/ha, scale 0 to 100 (0 no effect, 100 complete control), read-out: Plant response rating, Oat, Wild",25%
same,plant injury at 125 g/ha,"oilseed rape; 125 g ai/ha, postemergence, read-out: Plant response rating (0 to 100), Oilseed Rape",85%
same,plant injury at 250 g/ha,"oilseed rape; 250 g ai/ha, postemergence, read-out: Plant response rating (0 to 100), Oilseed Rape",95%
same,plant injury at 31 g/ha,"oilseed rape; Postemergence, 31 g ai/ha, scale 0 to 100 (0 no effect, 100 complete control), 13 to 15 days, read-out: Plant response rating, Oilseed Rape",50%
same,plant injury at 62 g/ha,"oilseed rape; Postemergence, 62 g ai/ha, scale 0 to 100 (0 no effect, 100 complete control), read-out: Plant response rating, Oilseed Rape",50%
same,pest or weed control at 125 g/ha,"Italian ryegrass; 125 g ai/ha, postemergence, read-out: Plant response rating (0 to 100), Ryegrass, Italian",10%
same,pest or weed control at 250 g/ha,"Italian ryegrass; 250 g ai/ha, postemergence, read-out: Plant response rating (0 to 100), Ryegrass, Italian",30%
same,pest or weed control at 31 g/ha,"Italian ryegrass; Postemergence, 31 g ai/ha, scale 0 to 100 (0 no effect, 100 complete control), 13 to 15 days, read-out: Plant response rating, Ryegrass, Italian",5%
same,pest or weed control at 62 g/ha,"Italian ryegrass; Postemergence, 62 g ai/ha, scale 0 to 100 (0 no effect, 100 complete control), read-out: Plant response rating, Ryegrass, Italian",10%
same,pest or weed control at 125 g/ha,"barnyardgrass; 125 g ai/ha, 0 to 100 scale where 0 is no effect and 100 is complete control, read-out: Plant response rating, Barnyardgrass",80%
same,pest or weed control at 500 g/ha,"barnyardgrass; 500 g ai/ha, 0 to 100 scale, 0 no effect, 100 complete control, approx. 10 days, read-out: Barnyardgrass plant response rating",100%
same,plant injury at 250 g/ha,rice,20%
same,pest or weed control at 125 g/ha,"lambsquarters; 125 g ai/ha, postemergence, read-out: Plant response rating (0 to 100), Lambsquarters",90%
same,pest or weed control at 250 g/ha,"lambsquarters; 250 g ai/ha, postemergence, read-out: Plant response rating (0 to 100), Lambsquarters",90%
same,pest or weed control at 31 g/ha,"lambsquarters; Postemergence, 31 g ai/ha, scale 0 to 100 (0 no effect, 100 complete control), 13 to 15 days, read-out: Plant response rating, Lambsquarters",70%
same,pest or weed control at 62 g/ha,"lambsquarters; Postemergence, 62 g ai/ha, scale 0 to 100 (0 no effect, 100 complete control), read-out: Plant response rating, Lambsquarters",80%
same,pest or weed control at 62 g/ha,"giant foxtail; 62 g ai/ha, preemergence, scale 0 (no effect) to 100 (complete control), read-out: Foxtail, Giant plant response rating",98%
same,pest or weed control at 125 g/ha,"giant foxtail; 125 g ai/ha, preemergence, scale 0 (no effect) to 100 (complete control), read-out: Foxtail, Giant plant response rating",100%
same,pest or weed control at 250 g/ha,"giant foxtail; 250 g ai/ha, preemergence, scale 0 (no effect) to 100 (complete control), read-out: Foxtail, Giant plant response rating",100%
same,pest or weed control at 31 g/ha,"giant foxtail; Preemergence, 31 g ai/ha, scale 0 to 100, 0 no effect, 100 complete control, read-out: Plant response rating, Foxtail, Giant",95%
same,pest or weed control at 125 g/ha,"pigweed; 125 g ai/ha, 0 to 100 scale where 0 is no effect and 100 is complete control, read-out: Plant response rating, Pigweed",100%
same,pest or weed control at 500 g/ha,"pigweed; 240 h, 500 g ai/ha, 0 to 100 scale, 0 no effect, 100 complete control, approx. 10 days, read-out: Pigweed plant response rating",100%
